Publication PMC10128108 (RSC Advances, 2023)
“Also recorded” adds a separate entry of the source. Values belong to the compound of their own block, whether it stands above or below them.

Legend:
[1] = test system: HCT-116 colorectal cancer cell line; assay: MTT antiproliferative assay, HCT-116; details: for IC50: Homo sapiens, HCT-116, read-out: IC50 against HCT-116; for SI (selectivity index), HCT-116: relative to normal WI-38 cells
[2] = test system: HepG-2 liver cancer cell line; assay: MTT antiproliferative assay, HepG-2; details: for IC50: Homo sapiens, HepG2, read-out: IC50 against HepG-2; for SI (selectivity index), HepG-2: relative to normal WI-38 cells
[3] = test system: human lung fibroblasts (WI-38) normal cells; assay: MTT cytotoxicity assay, normal WI-38 cells; assay type: cell-based; details: WI-38, read-out: IC50 against WI-38
[4] = test system: MCF-7 breast cancer cell line; assay: MTT antiproliferative assay, MCF-7; details: for IC50: Homo sapiens, MCF7, read-out: IC50 against MCF-7; for SI (selectivity index), MCF-7: relative to normal WI-38 cells
[5] = test system: Bax; assay: Bax level, ELISA in HepG-2; assay type: cell-based, human; details: for Bax: HepG-2, 24 h, 5a at 3.42 μM; for Bax/Bcl-2: ratio of the two levels, HepG-2
[6] = test system: p53; assay: p53 level, ELISA in HepG-2; assay type: cell-based, human
[7] = test system: HepG-2 cells; assay: Annexin V-FITC/PI apoptosis assay; assay type: cell-based, human
[8] = test system: HepG-2 cells; assay: Cell cycle analysis; assay type: cell-based, human; details: 24 h
[9] = test system: caspase-3; assay: Caspase-3 level, ELISA in HepG-2; assay type: cell-based, human; details: for Casp-3: HepG-2, 24 h, 5a at 3.42 μM
[10] = test system: Bcl-2; assay: Bcl-2 level, ELISA in HepG-2; assay type: cell-based, human; details: for Bcl-2: HepG-2, 24 h, 5a at 3.42 μM
[11] = target: c-Met kinase (Homo sapiens, UniProt P08581); assay: c-Met kinase inhibitory assay
c-Met kinase, sequence (P08581 25-1390): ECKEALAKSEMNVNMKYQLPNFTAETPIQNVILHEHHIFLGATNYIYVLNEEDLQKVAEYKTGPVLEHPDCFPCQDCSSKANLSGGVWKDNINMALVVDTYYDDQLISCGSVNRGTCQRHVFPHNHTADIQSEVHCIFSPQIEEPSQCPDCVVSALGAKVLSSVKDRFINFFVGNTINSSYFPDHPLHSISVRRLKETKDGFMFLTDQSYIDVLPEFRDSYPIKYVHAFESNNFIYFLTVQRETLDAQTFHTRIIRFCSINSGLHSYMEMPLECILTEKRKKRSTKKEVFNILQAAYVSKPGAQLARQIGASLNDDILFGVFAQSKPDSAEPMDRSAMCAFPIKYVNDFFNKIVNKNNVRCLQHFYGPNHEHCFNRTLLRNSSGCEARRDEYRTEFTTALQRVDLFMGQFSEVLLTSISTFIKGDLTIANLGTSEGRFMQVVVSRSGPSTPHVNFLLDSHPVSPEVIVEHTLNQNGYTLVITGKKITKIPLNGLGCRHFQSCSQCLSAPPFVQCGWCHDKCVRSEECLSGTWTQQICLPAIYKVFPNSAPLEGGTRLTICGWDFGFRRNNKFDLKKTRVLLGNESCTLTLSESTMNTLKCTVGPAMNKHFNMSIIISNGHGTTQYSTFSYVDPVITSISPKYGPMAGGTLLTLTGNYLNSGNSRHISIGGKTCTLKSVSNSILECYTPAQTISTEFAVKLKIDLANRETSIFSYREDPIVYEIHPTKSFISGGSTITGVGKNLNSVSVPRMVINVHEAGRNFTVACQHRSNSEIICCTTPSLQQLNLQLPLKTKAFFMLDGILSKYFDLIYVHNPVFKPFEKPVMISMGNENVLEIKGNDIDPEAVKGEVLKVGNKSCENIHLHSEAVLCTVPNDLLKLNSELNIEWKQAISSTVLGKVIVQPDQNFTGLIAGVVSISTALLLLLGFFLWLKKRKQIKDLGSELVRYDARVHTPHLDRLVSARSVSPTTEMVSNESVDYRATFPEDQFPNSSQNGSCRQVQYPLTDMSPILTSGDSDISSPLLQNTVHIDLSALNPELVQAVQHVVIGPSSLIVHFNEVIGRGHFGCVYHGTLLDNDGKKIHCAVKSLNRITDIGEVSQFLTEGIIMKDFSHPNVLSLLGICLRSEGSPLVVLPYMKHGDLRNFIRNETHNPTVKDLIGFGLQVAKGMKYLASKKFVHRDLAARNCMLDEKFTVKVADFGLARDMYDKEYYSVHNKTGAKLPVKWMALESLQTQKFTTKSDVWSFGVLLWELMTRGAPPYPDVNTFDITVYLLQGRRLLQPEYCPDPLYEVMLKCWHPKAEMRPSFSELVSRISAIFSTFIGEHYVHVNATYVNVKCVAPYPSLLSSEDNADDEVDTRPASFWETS

[12] = with respect to untreated HepG-2 cells
[13] = HepG-2, IC50 concentration (3.42 μM)

SMILES: Cc1ccc(S(=O)(=O)n2nc(C)c3c(-c4ccccc4)c4c(N)c(C(N)=O)sc4nc32)cc1 [Compound 8a, 5-Amino-3-methyl-4-phenyl-1-tosyl-1H-pyrazolo[3,4-b]thieno[3,2-e]pyridine-6-carboxamide]
IC50 [1]: 47.38 ± 0.11 µM
IC50 [2]: 30.58 ± 0.01 µM
IC50 [4]: 43.02 ± 0.24 µM

SMILES: CC(=O)c1sc2nc3c(c(C)nn3S(=O)(=O)c3ccc(C)cc3)c(-c3ccccc3)c2c1N [Compound 8b, 1-(5-Amino-3-methyl-4-phenyl-1-tosyl-1H-pyrazolo[3,4-b]thieno[3,2-e]pyridin-6-yl)ethan-1-one]
IC50 [1]: 67.84 ± 0.02 µM
IC50 [2]: 52.1 ± 0.71 µM
IC50 [4]: 60.23 ± 0.17 µM

SMILES: Cc1ccc(S(=O)(=O)n2nc(C)c3c(-c4ccc(Cl)cc4)c4c(N)c(C#N)sc4nc32)cc1 [Compound 8c, 5-Amino-4-(4-chlorophenyl)-3-methyl-1-tosyl-1H-pyrazolo[3,4-b]thieno[3,2-e]pyridine-6-carbonitrile]
IC50 [1]: 41.77 ± 0.4 µM
IC50 [2]: 25.4 ± 0.5 µM
IC50 [4]: 36.25 ± 0.13 µM

SMILES: CCOC(=O)c1sc2nc3c(c(C)nn3S(=O)(=O)c3ccc(C)cc3)c(-c3ccc(Cl)cc3)c2c1N [Compound 8d, Ethyl 5-amino-4-(4-chlorophenyl)-3-methyl-1-tosyl-1H-pyrazolo[3,4-b]thieno[3,2-e]pyridine-6-carboxylate]
IC50 [1]: 38.11 ± 0.3 µM
IC50 [2]: 23.12 ± 0.08 µM
IC50 [4]: 32.14 ± 0.19 µM

SMILES: C#Cc1cccc(Nc2ncnc3cc(OCCOC)c(OCCOC)cc23)c1 [Erlotinib, reference compound]
Bax [5]: 200.20 ± 0.25 pg/mL
Bax/Bcl-2 [5]: 118.84
IC50 [3]: 70 ± 1.08 µM
Casp-3 [9]: 58.41 ± 0.12 ng/mL
Bcl-2 [10]: 1.69 ± 0.10 ng/mL

Continued by falling IC50 [1], values first:

IC50 [1]: 18.86 ± 0.12 µM
IC50 [2]: 15.4 ± 0.3 µM
IC50 [4]: 19.3 ± 0.45 µM
SMILES: Cc1ccc(S(=O)(=O)n2nc(C)c3c(-c4ccc(Cl)cc4)c4c(N)c(C(=O)O)sc4nc32)cc1 [Compound 8f, 5-Amino-4-(4-chlorophenyl)-3-methyl-1-tosyl-1H-pyrazolo[3,4-b]thieno[3,2-e]pyridine-6-carboxylic acid]

IC50 [1]: 18.2 ± 0.62 µM
IC50 [2]: 12.31 ± 0.1 µM
IC50 [4]: 14.2 ± 0.33 µM
SMILES: CC(=O)c1sc2nc3c(c(C)nn3S(=O)(=O)c3ccc(C)cc3)c(-c3ccc(Cl)cc3)c2c1N [Compound 8e, 1-(5-Amino-4-(4-chlorophenyl)-3-methyl-1-tosyl-1H-pyrazolo[3,4-b]thieno[3,2-e]pyridin-6-yl)ethan-1-one]

IC50 [1]: 17.2 ± 0.37 µM
IC50 [2]: 10.2 ± 0.15 µM
IC50 [4]: 13.7 ± 0.7 µM
SMILES: Cc1ccc(S(=O)(=O)n2nc(C)c3sc(=S)n(C)c32)cc1 [Compound 10a, 3,6-Dimethyl-1-tosyl-1,6-dihydro-5H-pyrazolo[3,4-d]thiazole-5-thione]

IC50 [1]: 9.36 ± 0.45 µM
IC50 [2]: 6.75 ± 0.62 µM
IC50 [4]: 8.13 ± 0.4 µM
SMILES: Cc1ccc(S(=O)(=O)n2nc(C)c3sc(=S)n(-c4ccccc4)c32)cc1 [Compound 10b, 3-Methyl-6-phenyl-1-tosyl-1H-pyrazolo[3,4-d]thiazole-5(6H)-thione]
SI (selectivity index), HCT-116 [1]: 9.12
fold less potent than 5-FU against HepG-2 ([2]; ratio of IC50 values): 2.3 fold
SI (selectivity index), HepG-2 [2]: 12.65
IC50 [3]: 85.41 ± 0.51 µM
SI (selectivity index), MCF-7 [4]: 10.50

IC50 [1]: 9.21 ± 0.02 µM
IC50 [2]: 3.56 ± 1.5 µM
IC50 [11]: 0.00795 ± 0.00017 µM
IC50 [4]: 6.82 ± 1.1 µM
SMILES: Cc1ccc(S(=O)(=O)n2nc(C)c3c(-c4ccc(Cl)cc4)c(C#N)c(=S)[nH]c32)cc1 [Compound 5b, 4-(4-Chlorophenyl)-3-methyl-6-thioxo-1-tosyl-6,7-dihydro-1H-pyrazolo[3,4-b]pyridine-5-carbonitrile]
SI (selectivity index), HCT-116 [1]: 9.23
fold more potent than erlotinib against HepG-2 ([2]; ratio of IC50 values): approximately 2.4 fold
SI (selectivity index), HepG-2 [2]: 23.90
IC50 [3]: 85.1 ± 0.32 µM
SI (selectivity index), MCF-7 [4]: 12.47

IC50 [1]: 6.27 ± 1.15 µM
IC50 [2]: 3.42 ± 1.31 µM
IC50 [11]: 0.00427 ± 0.00031 µM
IC50 [4]: 5.25 ± 1.04 µM
SMILES: Cc1ccc(S(=O)(=O)n2nc(C)c3c(-c4ccccc4)c(C#N)c(=S)[nH]c32)cc1 [Compound 5a, 3-Methyl-4-phenyl-6-thioxo-1-tosyl-6,7-dihydro-1H-pyrazolo[3,4-b]pyridine-5-carbonitrile]
SI (selectivity index), HCT-116 [1]: 12.83
Bax [5]: 211.40 ± 0.25 pg/mL
Bax/Bcl-2 [5]: 101.14
fold increase of Bax level ([5]; vs untreated HepG-2 cells): ~5.4 folds
fold increase of Bax/Bcl-2 ratio ([5]; vs untreated HepG-2 cells): 21 times
fold more potent than erlotinib against HepG-2 ([2]; ratio of IC50 values): approximately 2.4 fold
SI (selectivity index), HepG-2 [2]: 23.52
p53 ([6]; HepG-2, 24 h, 5a at 3.42 μM): 825.22 ± 0.40 pg/mL
fold upregulation of p53 ([6]; vs untreated HepG-2 cells): 6.9 folds
Apoptosis Early ([7]; HepG-2, 3.42 μM, 24 h): 24.63%
Apoptosis Late ([7]; HepG-2, 3.42 μM, 24 h): 16.28%
Necrosis ([7]; HepG-2, 3.42 μM, 24 h): 6.24%
fold increase of early apoptotic cells [7, 12]: about 63 folds
fold increase of late apoptotic cells [7, 12]: ~116 folds
IC50 [3]: 80.46 ± 0.33 µM
cell cycle arrest phase ([8]; HepG-2, 3.42 μM): arrested the cell cycle at the G1/S phase; also recorded: cell cycle arrest at the G1/S phase
percentage of cells in G0–G1 phase [8, 13]: 51.93%
percentage of cells in G2/M phase [8, 13]: 3.89%
percentage of cells in S phase [8, 13]: 44.18%
Casp-3 [9]: 42.60 ± 0.10 ng/mL
fold upregulation of caspase-3 ([9]; vs untreated HepG-2 cells): 23.8 folds
Bcl-2 [10]: 2.09 ± 0.15 ng/mL
fold reduction of Bcl-2 level ([10]; vs untreated HepG-2 cells): ~3.9 folds
SI (selectivity index), MCF-7 [4]: 15.32

IC50 [1]: 5.26 ± 0.31 µM
IC50 [2]: 2.87 ± 0.15 µM
IC50 [4]: 3.58 ± 0.45 µM
SMILES: O=c1[nH]cc(F)c(=O)[nH]1 [5-Fluorouracil, reference compound]
SI (selectivity index), HCT-116 [1]: 15.15
SI (selectivity index), HepG-2 [2]: 27.77
IC50 [3]: 79.7 ± 0.64 µM
SI (selectivity index), MCF-7 [4]: 22.26
